One experiment has as its target hH3 receptors (Homo sapiens, UniProt Q9Y5N1). The experiment can be described thus: [35S]GTPγS binding assay, antagonist mode (RαMH EC80). Format: biochemical. As to conditions: RαMH at EC80 (30 nmol/L for hH3), membranes, SPA; read-out: IC50 equivalent of pIC50, inhibition of H3 agonist R-α-Methyl-Histamine stimulated [35S]GTPγS binding (converted). The procedure:
Guanosine 5′-O-(3-[^35S]thio)triphosphate [GTPgS] Binding Assay
[^35S]GTPγS binding assay was performed in a buffer consisting of 20 mmol/L Hepes, 100 mmol/L NaCl, 10 mmol/L MgCl2, 3 μg/mL saponine and 10 μmol/L GDP. The pH was set at 7.4 at room temperature. Liquid handling robots were used to prepare, in drug plates, 10 points dose response curves of the compound of formula (I) (3-fold serial dilutions, starting at 1 μmol/L for hH3 receptors and 10 μmol/L for rH3 receptors). The assay, performed in 96-well plates, consisted of 120 μL, containing 20 μL of RαMH (EC80, antagonist mode), 20 μL the compound of formula (I) at varying concentrations, 20 μL of the tracer [^35S]GTPγS (60000 dpm/well, 0.2 nmol/L) and finally 60 μL of membranes (10 μg of protein/well for hH3) mix is added to start the reaction. Membranes, SPA beads (125 μg/well) and GDP were mixed together and incubated for 30 minutes at room temperature prior to the start of the assay. Eight wells were used to define baseline and RαMH EC80 (30 nmol/L for hH3 receptors) define the positive control. Plates were then mixed (2 minutes) on an orbital mixer, incubated 60 minutes at room temperature, and then read on a Trilux 384™ counter.

Experiment [1] has as its target human H3 receptor (445 aa) (Homo sapiens, UniProt Q9Y5N1). The experiment in a line: Human histamine H3 binding assay with the agonist radioligand [3H]-N-α-methylhistamine. As to conditions: membranes, SPA, 1.5 nmol/L radioligand, pH 7.4, room temperature; read-out: IC50 equivalent of pIC50, inhibition of specific binding of [3H]-N-α-Methyl Histamine to the human H3 receptor (converted). The procedure: Human Histamine H3 Binding Assay with the Agonist Radioligand [^3H]-N-a-Methylhistamine
The H3 binding assay was used to evaluate the ability of a compound of formula (I) to inhibit [^3H]-N-a-methylhistamine under the conditions as described below: All binding assays were performed in a buffer consisting of 20 mmol/L Hepes, 100 mmol/L NaCl. The pH was set at 7.4 at room temperature. Liquid handling robots were used to prepare, in drug plates, 10 points dose response curves of the compound of formula (I) (3-fold serial dilutions, starting at 10 μmol/L). The assay, performed in 96-well plates, consisted of 100 μL, containing 20 μL of buffer alone for total binding (column #1), 20 μL of imetit (5×) for the non specific binding (column #2), 20 μL of the compound of formula (I) (5×) at varying concentrations (column #3 to #12), plus 20 μL of [3H]-N-a-Methylhistamine (25 000 dpm/well, 1.5 nmol/L) in all wells and finally 60 μL of membranes (20 μg of protein/well) mix is added to start the reaction. Membranes and SPA beads (1000 μg/well) were mixed together and incubated for 30 minutes at room is temperature prior to the start of the assay. […] Plates were then mixed on an orbital mixer, incubated 90 minutes at room temperature, and then read on a Trilux 384™ counter.

The structures appear in SMILES notation.

Chain of human H3 receptor (445 aa) (Q9Y5N1 whole entry): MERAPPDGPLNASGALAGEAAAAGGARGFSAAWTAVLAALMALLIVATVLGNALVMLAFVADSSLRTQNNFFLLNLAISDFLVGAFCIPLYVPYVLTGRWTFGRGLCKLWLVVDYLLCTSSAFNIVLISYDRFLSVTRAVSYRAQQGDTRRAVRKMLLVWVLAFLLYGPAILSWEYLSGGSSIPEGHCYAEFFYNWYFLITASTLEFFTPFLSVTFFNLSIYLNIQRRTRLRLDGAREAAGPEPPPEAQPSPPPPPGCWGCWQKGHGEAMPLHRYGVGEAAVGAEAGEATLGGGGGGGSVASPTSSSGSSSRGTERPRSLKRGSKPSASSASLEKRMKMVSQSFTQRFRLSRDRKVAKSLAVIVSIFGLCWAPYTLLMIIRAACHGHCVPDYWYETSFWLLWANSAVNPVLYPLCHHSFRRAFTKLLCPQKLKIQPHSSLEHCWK
Chain of hH3 receptors (Q9Y5N1 whole entry): as above

Regarding `NC(=O)c1ccc([C@H]2C[C@@H]2C(=O)N2CCN(C3CCC3)CC2)cc1` [Compound (I), 4-{(1S,2S)-2-[(4-cyclobutylpiperazin-1-yl)carbonyl]-cyclopropyl}-benzamide], the IC50 at hH3 receptors is 3 nM; in experiment [1], 13 nM.

The record behind these values is patent US20110201623A1, “Crystalline Form Of A Cyclopropyl Benzamide Derivative” (priority 2010, published 2011).
